# From ChEMBL document CHEMBL2074244, “Loss of ATP-dependent transport activity in pseudoxanthoma elasticum-associated mutants of human ABCC6 (MRP6)” (J Biol Chem, 2002)
# Experiments:
# Format in all cases: functional, cell membranes, Membrane vesicle
# Design in all cases: scale not given: the % may be the effect or the level left
# [1] = molecular target: ATP-binding cassette sub-family C member 2 (Homo sapiens, UniProt Q92887); test: TP_TRANSPORTER: inhibition of NEM-GS by Benzbromarone at a concentration of 30uM in membrane vesicles from MRP2-expressing Sf9 cells; conditions: sf9, 30 µM
# Chain of ATP-binding cassette sub-family C member 2 (Q92887 whole entry): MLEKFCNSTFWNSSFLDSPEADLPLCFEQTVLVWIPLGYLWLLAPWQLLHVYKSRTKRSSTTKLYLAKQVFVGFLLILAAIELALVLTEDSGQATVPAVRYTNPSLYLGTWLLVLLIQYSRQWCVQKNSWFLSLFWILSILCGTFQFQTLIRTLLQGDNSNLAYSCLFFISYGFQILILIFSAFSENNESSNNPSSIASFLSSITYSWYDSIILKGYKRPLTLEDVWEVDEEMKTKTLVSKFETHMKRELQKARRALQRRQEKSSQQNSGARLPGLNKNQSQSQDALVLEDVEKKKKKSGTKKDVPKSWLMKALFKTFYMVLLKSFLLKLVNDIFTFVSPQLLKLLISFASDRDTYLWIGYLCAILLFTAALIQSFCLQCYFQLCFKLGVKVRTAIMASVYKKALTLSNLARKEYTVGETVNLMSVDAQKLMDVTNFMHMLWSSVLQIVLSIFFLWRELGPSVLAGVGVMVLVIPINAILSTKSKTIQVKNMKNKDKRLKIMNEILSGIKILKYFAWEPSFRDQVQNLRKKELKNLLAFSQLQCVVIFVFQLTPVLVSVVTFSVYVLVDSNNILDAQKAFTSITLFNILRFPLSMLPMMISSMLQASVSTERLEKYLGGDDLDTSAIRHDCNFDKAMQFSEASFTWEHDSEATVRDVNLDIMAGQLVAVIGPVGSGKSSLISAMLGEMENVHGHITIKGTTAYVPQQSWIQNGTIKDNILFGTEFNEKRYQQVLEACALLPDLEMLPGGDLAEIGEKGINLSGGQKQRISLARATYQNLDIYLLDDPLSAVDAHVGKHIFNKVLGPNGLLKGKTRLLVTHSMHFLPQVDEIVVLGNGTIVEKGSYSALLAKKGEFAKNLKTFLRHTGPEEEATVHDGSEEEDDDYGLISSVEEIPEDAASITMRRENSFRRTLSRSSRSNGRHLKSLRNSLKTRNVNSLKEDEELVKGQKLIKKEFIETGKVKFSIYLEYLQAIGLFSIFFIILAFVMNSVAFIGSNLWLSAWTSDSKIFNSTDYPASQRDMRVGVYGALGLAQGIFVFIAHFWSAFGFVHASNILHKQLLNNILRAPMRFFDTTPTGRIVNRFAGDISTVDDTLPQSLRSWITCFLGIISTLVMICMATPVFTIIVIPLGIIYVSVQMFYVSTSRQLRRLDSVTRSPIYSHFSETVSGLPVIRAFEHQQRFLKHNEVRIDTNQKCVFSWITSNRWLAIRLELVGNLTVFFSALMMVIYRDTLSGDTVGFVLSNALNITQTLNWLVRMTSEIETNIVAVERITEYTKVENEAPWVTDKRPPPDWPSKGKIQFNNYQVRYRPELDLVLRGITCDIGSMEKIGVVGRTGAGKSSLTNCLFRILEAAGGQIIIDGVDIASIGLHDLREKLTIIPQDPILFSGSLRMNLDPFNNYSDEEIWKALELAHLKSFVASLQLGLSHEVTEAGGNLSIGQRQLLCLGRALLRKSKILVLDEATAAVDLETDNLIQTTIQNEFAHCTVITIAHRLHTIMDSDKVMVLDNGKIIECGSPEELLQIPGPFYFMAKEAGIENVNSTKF
# [2] = molecular target: T1, MRP6 (ABCC6) (Homo sapiens, UniProt O95255); test: TP_TRANSPORTER: inhibition of NEM-GS in the presence of Benzbromarone at a concentration of 30uM in membrane vesicles from MRP6-expressing Sf9 cells; conditions: probe NEM-GS, read-out: Activity
# T1 sequence (O95255 whole entry): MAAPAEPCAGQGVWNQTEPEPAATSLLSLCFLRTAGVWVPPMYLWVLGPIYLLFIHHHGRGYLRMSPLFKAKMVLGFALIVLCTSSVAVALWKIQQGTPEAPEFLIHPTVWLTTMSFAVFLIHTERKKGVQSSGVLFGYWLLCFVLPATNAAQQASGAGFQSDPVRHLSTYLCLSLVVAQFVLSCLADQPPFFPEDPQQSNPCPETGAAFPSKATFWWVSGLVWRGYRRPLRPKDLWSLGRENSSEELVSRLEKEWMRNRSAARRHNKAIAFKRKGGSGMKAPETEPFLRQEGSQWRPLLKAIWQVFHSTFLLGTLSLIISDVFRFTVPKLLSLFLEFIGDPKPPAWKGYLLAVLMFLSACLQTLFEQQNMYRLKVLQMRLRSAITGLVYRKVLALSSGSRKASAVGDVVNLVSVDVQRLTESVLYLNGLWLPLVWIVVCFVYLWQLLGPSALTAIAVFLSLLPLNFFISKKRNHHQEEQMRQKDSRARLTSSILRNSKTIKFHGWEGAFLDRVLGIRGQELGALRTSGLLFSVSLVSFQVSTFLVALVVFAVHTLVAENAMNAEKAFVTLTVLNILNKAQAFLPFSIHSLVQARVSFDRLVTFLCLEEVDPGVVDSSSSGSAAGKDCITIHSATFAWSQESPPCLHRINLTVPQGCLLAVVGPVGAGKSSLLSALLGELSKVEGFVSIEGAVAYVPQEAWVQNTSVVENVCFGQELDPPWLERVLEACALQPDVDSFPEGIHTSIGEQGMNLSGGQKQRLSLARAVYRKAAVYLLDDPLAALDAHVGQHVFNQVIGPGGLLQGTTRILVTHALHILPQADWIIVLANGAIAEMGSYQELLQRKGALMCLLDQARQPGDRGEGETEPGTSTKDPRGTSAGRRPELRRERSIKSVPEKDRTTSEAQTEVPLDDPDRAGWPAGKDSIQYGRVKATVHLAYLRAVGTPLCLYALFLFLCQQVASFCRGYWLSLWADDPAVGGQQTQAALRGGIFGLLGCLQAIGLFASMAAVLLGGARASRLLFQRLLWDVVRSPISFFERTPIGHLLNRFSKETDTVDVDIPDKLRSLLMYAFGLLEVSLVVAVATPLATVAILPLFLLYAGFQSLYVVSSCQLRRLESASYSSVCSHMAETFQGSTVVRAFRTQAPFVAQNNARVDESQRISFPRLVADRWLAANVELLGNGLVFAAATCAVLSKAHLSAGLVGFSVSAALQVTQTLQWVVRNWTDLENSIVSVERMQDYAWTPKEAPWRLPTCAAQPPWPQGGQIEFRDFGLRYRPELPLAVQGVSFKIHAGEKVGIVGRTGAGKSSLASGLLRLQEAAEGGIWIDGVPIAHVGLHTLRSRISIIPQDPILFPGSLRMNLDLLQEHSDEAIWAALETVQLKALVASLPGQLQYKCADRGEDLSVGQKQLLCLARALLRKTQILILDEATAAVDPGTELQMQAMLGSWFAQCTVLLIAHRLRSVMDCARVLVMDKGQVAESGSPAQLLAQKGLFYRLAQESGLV
# [3] = molecular target: T1, MRP6 (ABCC6); test: TP_TRANSPORTER: inhibition of NEM-GS by Benzbromarone at a concentration of 30uM in membrane vesicles from MRP6-expressing Sf9 cells; conditions: probe NEM-GS, read-out: Activity
# [4] = molecular target: T1, MRP6 (ABCC6); test: TP_TRANSPORTER: inhibition of NEM-GS in the presence of Indomethacin at a concentration of 100uM in membrane vesicles from MRP6-expressing Sf9 cells; conditions: probe NEM-GS, read-out: Activity
# [5] = molecular target: T1, MRP6 (ABCC6); test: TP_TRANSPORTER: inhibition of NEM-GS by Indomethacin at a concentration of 100uM in membrane vesicles from MRP6-expressing Sf9 cells; conditions: probe NEM-GS, read-out: Activity
# [6] = molecular target: T1, MRP6 (ABCC6); test: TP_TRANSPORTER: inhibition of NEM-GS in the presence of Probenecid at a concentration of 1mM in membrane vesicles from MRP6-expressing Sf9 cells; conditions: probe NEM-GS, read-out: Activity
# [7] = molecular target: ATP-binding cassette sub-family C member 6 (Homo sapiens, UniProt O95255); test: TP_TRANSPORTER: inhibition of NEM-GS by Probenecid at a concentration of 1mM in membrane vesicles from MRP6-expressing Sf9 cells; conditions: sf9, 1000 µM
# Chain of ATP-binding cassette sub-family C member 6 (O95255 whole entry): as above
# [8] = molecular target: MRP2 (ABCC2) (Homo sapiens, UniProt Q92887); test: TP_TRANSPORTER: inhibition of NEM-GS by Probenecid at a concentration of 1mM in membrane vesicles from MRP2-expressing Sf9 cells; conditions: probe NEM-GS, read-out: Activity
# Chain of MRP2 (ABCC2) (Q92887 whole entry): as the sequence (Q92887 whole entry) above
smiles,measurement,setting,value
CCc1oc2ccccc2c1C(=O)c1cc(Br)c(O)c(Br)c1 [BENZBROMARONE],Activity,[1],0%
same,activity at 30 µM,[2],0%
same,activity at 30 µM,[3],0%
COc1ccc2c(c1)c(CC(=O)O)c(C)n2C(=O)c1ccc(Cl)cc1 [INDOMETHACIN],activity at 100 µM,[4],80%
same,activity at 100 µM,[5],20%
CCCN(CCC)S(=O)(=O)c1ccc(C(=O)O)cc1 [PROBENECID],activity at 1000 µM,[6],10%
same,Activity,[7],70%
same,activity at 1000 µM,[8],20%
